One experiment has as its target FGFR1 kinase (Homo sapiens (Human), UniProt P11362). As to the kind of experiment: FGFR1 TR-FRET kinase assay. It counts as biochemical. The conditions noted are these: for inhibition at 1 µM: 1000 nM compound; for IC50: 13 μM ATP, read-out: IC50 of FGFR1 inhibition. On the procedure: Compounds were screened in the TR-FRET assay with FGFR1 kinase. 5 ng of FGFR1 [Upstate, USA] kinase was used for assay. The compound was incubated with the kinase for 30 minutes at RT. After the incubation, substrate mix [40 nM Ultra light poly GT (Perkin Elmer, USA) and 13 μM ATP (Sigma)] was added. The above reaction was stopped by the addition of 40 mM EDTA after the […] kinase reaction. The Eu-labelled antiphospho-tyrosine antibody [Perkin Elmer, USA] was added at 0.5 nM and the fluorescence emission at 615 nm/665 nm [excitation at 340 nm] was measured. The compounds were initially screened at 100 nM and 1 μM concentrations. The compounds with >50% inhibition at 100 nM of FGFR1 were taken for the full dose response studies. The final DMSO concentration in the assay was 1%. For IC50 determination, ⅓^rd serial dilution was made from the 20 mM DMSO stock solution. 2 μl of these were transferred to the test wells containing 20 μl of the reaction mixture [total reaction volume 20 μl]. The fluorescence was measured in Perkin Elmer Wallac 1420 Multilabel Counter Victor 3. The IC50 was determined by fitting the dose response data to sigmoidal curve fitting equation using GraphPad Prism software V5.
(In TR-FRET formats the signal depends on donor and acceptor labels being close together.)

A further experiment concerns the target c-Met kinase (Homo sapiens (Human), UniProt P08581). Briefly: c-Met TR-FRET kinase assay. It is filed as biochemical. The conditions noted are these: 1000 nM compound. The method, then:
Compounds were screened in the TR-FRET assay with c-Met kinase. 0.1 ng of c-Met [expressed in-house] kinase was used for assay. The compound was incubated with the kinase for 60 min at RT. After the incubation, substrate mix [40 nM Ultra light poly GT (Perkin Elmer, USA) and 10 μM ATP (Sigma)] was added. The above reaction was stopped by the addition of 40 mM EDTA after the 30 min kinase reaction. The Eu-labelled antiphospho-tyrosine antibody [Perkin Elmer, USA] was added at 0.5 nM and the fluorescence emission at 615 nm/665 nm [excitation at 340 nm] was measured. The compounds were initially screened at 100 nM and 1 μM concentrations. The compounds with >50% inhibition at 100 nM of c-Met were taken for the full dose response studies. The final DMSO concentration in the assay was 1%. For IC50 determination, ⅓rd serial dilution was made from the 20 mM DMSO stock solution. 2 μl of these were transferred to the test wells containing 20 μl reaction mixture [total reaction volume 20 μl]. The fluorescence was measured in Perkin Elmer Wallac 1420 Multilabel Counter Victor 3. The IC50 was determined by fitting the dose response data to sigmoidal curve fitting equation using GraphPad Prism software V5.

Chain of FGFR1 kinase (P11362 22-822): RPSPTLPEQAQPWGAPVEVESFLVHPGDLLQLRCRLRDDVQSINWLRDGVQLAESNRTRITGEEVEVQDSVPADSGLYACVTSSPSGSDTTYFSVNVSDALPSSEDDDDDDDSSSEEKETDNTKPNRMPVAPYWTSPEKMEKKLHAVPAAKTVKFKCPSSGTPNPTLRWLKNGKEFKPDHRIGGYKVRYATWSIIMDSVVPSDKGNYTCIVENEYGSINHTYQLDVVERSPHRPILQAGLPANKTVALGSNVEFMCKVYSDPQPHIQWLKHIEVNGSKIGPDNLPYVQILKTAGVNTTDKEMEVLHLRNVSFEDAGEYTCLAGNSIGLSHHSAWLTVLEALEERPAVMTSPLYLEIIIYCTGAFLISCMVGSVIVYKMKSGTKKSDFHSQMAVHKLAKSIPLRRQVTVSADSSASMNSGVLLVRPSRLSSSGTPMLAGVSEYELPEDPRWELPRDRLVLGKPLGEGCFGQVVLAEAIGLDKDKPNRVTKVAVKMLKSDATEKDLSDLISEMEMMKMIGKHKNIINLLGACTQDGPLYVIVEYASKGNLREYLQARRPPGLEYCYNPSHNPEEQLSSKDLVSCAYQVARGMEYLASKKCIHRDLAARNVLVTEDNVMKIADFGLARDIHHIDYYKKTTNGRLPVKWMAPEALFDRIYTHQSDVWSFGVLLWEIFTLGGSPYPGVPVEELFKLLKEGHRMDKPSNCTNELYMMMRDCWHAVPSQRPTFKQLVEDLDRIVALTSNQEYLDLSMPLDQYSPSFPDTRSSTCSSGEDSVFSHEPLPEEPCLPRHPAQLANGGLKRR
Chain of c-Met kinase (P08581 25-1390): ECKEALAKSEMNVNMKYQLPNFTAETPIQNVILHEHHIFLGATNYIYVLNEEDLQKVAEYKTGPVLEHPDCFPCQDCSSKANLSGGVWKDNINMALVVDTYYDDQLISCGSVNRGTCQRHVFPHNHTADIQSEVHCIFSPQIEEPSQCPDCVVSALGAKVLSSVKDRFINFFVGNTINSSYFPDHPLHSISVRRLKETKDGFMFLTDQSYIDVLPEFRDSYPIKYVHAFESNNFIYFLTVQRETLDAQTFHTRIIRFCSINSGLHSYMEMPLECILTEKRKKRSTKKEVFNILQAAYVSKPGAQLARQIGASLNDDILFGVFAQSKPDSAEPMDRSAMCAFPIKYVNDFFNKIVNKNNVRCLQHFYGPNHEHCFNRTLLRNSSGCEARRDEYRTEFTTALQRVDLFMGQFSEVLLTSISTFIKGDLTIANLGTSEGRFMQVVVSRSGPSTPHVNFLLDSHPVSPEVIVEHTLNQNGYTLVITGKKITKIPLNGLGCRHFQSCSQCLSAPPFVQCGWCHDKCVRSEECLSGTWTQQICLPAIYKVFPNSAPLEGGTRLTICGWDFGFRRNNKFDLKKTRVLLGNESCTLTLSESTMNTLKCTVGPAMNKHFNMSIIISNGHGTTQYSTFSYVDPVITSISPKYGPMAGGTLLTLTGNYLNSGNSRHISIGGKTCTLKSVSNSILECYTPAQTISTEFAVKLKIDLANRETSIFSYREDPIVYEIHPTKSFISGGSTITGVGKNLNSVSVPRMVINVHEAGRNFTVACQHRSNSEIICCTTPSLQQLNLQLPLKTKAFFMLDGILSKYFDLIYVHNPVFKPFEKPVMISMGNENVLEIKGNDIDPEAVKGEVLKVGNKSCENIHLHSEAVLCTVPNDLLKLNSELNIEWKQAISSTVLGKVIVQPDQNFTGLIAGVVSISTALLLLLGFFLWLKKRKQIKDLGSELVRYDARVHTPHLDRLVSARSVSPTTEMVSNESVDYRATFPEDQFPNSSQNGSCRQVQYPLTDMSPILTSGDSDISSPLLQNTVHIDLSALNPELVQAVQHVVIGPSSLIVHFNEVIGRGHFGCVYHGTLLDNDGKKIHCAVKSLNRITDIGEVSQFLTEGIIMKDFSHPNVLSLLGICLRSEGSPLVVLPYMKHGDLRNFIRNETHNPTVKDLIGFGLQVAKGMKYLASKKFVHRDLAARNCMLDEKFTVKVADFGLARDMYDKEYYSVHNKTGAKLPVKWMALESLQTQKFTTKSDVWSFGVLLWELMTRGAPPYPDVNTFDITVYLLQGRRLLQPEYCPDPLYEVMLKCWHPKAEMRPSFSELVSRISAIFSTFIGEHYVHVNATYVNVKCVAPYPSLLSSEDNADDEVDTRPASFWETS

Take `COc1ccc(-c2ccc3c(c2)ncn3-c2cc(NC(C)=O)cc(-c3ccc(F)cc3)c2)cn1` [Example 69, N-(4′-fluoro-5-(5-(6-methoxypyridin-3-yl)-1H-benzo[d]imidazol-1-yl)biphenyl-3-yl)acetamide]: on FGFR1 kinase, the inhibition at 1 µM amounted to 87% and the IC50 was 22 nM. Besides, at c-Met kinase, the inhibition at 1 µM is -2%.

In the case of `O=S(=O)(Nc1cc(-c2ccc(F)cc2F)cc(-n2cnc3cc(-c4cnco4)ccc32)c1)c1ccccc1` [Example 26, N-(2′,4′-difluoro-5-(5-(oxazol-5-yl)-1H-benzo[d]imidazol-1-yl)biphenyl-3-yl)-benzenesulfonamide], at FGFR1 kinase, the inhibition at 1 µM was determined as 93% and the IC50 was determined as 21 nM. The inhibition at 1 µM on c-Met kinase was 2%.

Take `O=C(NCc1ccco1)Nc1cc(-n2cccn2)cc(-n2cnc3cc(-n4cccn4)ccc32)c1` [Example 123, 1-(3-(5-(1H-pyrazol-1-yl)-1H-benzo[d]imidazol-1-yl)-5-(1H-pyrazol-1-yl)-phenyl)-3-(furan-2-ylmethyl)urea]: at FGFR1 kinase, the inhibition at 1 µM was 94% and the 50% inhibitory concentration (IC50) came to 61 nM. The inhibition at 1 µM against c-Met kinase amounted to 0%.

In the case of `Cn1cc(-c2ccc3c(c2)ncn3-c2cc(NS(=O)(=O)C3CC3)cc(-c3ccc(F)cc3F)c2)cn1` [Example 5, N-(2′,4′-difluoro-5-(5-(1-methyl-1H-pyrazol-4-yl)-1H-benzo[d]imidazol-1-yl)-biphenyl-3-yl)cyclopropanesulfonamide], the inhibition at 1 µM on FGFR1 kinase was 95%; against c-Met kinase, 7%. Besides, on FGFR1 kinase, the half-inhibitory concentration (IC50) stood at 12 nM.

As for `CCS(=O)(=O)Nc1cc(-c2ccc(F)cc2F)cc(-n2cnc3cc(-n4cccn4)ccc32)c1` [Example 30, N-(5-(5-(1H-pyrazol-1-yl)-1H-benzo[d]imidazol-1-yl)-2′,4′-difluorobiphenyl-3-yl)ethanesulfonamide], on FGFR1 kinase, the inhibition at 1 µM worked out at 94% and the IC50 worked out at 16 nM. Besides, the inhibition at 1 µM against c-Met kinase is 1%.

In the case of `CC(=O)Nc1cc(-c2ccc(F)cc2)cc(-n2cnc3cc(-n4cccn4)ccc32)c1` [Example 70, N-(5-(5-(1H-pyrazol-1-yl)-1H-benzo[d]imidazol-1-yl)-4′-fluorobiphenyl-3-yl)-acetamide], on FGFR1 kinase, the inhibition at 1 µM came to 99% and the IC50 was 10 nM. For the same compound, the inhibition at 1 µM against c-Met kinase was 0%.

Regarding `CCS(=O)(=O)Nc1cc(-c2ccc(F)cc2F)cc(-n2cnc3cc(-c4cnn(C)c4)cnc32)c1` [Example 133, N-(2′,4′-difluoro-5-(6-(1-methyl-1H-pyrazol-4-yl)-3H-imidazo[4,5-b]pyridin-3-yl)biphenyl-3-yl)ethanesulfonamide], at FGFR1 kinase, the inhibition at 1 µM came to 97% and the concentration for half-maximal inhibition (IC50) is 14 nM. Besides, at c-Met kinase, the inhibition at 1 µM came to 0%.

As for `CC(C)(O)CCn1cc(-c2ccc3c(c2)ncn3-c2cc(NS(=O)(=O)C3CC3)cc(-c3ccc(F)cc3F)c2)nn1` [Example 47, N-(2′,4′-difluoro-5-(5-(1-(3-hydroxy-3-methylbutyl)-1H-1,2,3-triazol-4-yl)-1H-benzo[d]imidazol-1-yl)biphenyl-3-yl)cyclopropanesulfonamide], at FGFR1 kinase, the inhibition at 1 µM amounted to 99% and the IC50 stood at 7 nM. Besides, on c-Met kinase, the inhibition at 1 µM was found to be 10%.

Consider `CCS(=O)(=O)Nc1cc(-c2ccc(F)cc2)cc(-n2cnc3cc(-n4cccn4)ccc32)c1` [Example 72, N-(5-(5-(1H-pyrazol-1-yl)-1H-benzo[d]imidazol-1-yl)-4′-fluorobiphenyl-3-yl)-ethanesulfonamide], for which the inhibition at 1 µM was determined as 98% at FGFR1 kinase and 11% against c-Met kinase. Further, on FGFR1 kinase, the IC50 was 32 nM.

Turning to `CC(=O)Nc1cc(-c2ccc(F)cc2F)cc(-n2cnc3cc(-c4cnco4)ccc32)c1` [Example 22, N-(2′,4′-difluoro-5-(5-(oxazol-5-yl)-1H-benzo[d]imidazol-1-yl)biphenyl-3-yl)-acetamide], the inhibition at 1 µM against FGFR1 kinase turned out to be 99%; against c-Met kinase, 5%. Moreover, at FGFR1 kinase, the IC50 came to 3.8 nM.

As usually defined, the inhibition is the relative decrease from the control value, in per cent. By IC50 is commonly meant the midpoint of a concentration-inhibition curve.
